Data as given in patent US20040192686A1, “Benzoazine mono-N-oxides and benzoazine 1,4 dioxides and compositions therefrom for the therapeutic use in cancer treatments” (Auckland Uniservices Limited, priority 2003, published 2004).
In brackets after ≈: the same amount, converted by molar mass.

Experiments:
HT29 cells [1] = test: TPZ potentiation test: IC50 of TPZ with and without potentiator, anoxic HT29 cells; assay type: cell-based, human; conditions: conc of potentiator 0.5 mM; 4 hr anoxic exposure of HT29 cells
[2] = system: HT29 human colon carcinoma cells; test: Cytotoxicity (plating efficiency) in stirred single cell suspensions of HT29 cells, anoxic or aerobic; conditions: for Potentiation of the aerobic cytotoxicity of TPZ: HT29 cells, gas phase 5% CO2 in air
Excerpt: Cultures were maintained at <10 ppm O2 under a continuously-flowing stream of 5% CO2 in nitrogen and were sampled at intervals to determine plating efficiency.
Experimental conditions were as for FIG. 2, except that the gas phase was 5% CO2 in air. Values are means and error bars are ranges for duplicate cultures.
Drug exposure time was 1 hr. Error bars represent the range for duplicate determinations.

HT-29 MCLs = assay type: in vitro ADME, human
Procedure: Compounds are added to the donor compartment, along with ^14C-urea as an internal standard, and diffusion into the receiver compartment is monitored by HPLC and scintillation counting.
The concentrations in the Receiver compartment (normalised against the initial concentration in the Donor compartment) are plotted against those of the flux marker ^14C-urea to account for small differences in thickness of the MCLs. The fitted diffusion coefficients for TPZ (n=12) and SR 4317 (n=2) are: […] cm^2 sec^−1, respectively.
The inventors have also investigated the extravascular transport properties (tissue diffusion characteristics) of SR 4317 to assess whether it can diffuse well enough to reach hypoxic cells in tumours efficiently. This study used the multicellular layer (MCL) assay (Hicks et al., Int. J. Radiat. Oncol., Biol., Phys., 1998, 42, 641; Hicks et al., J. Pharmacol. Exper. Ther., 2001, 297, 1088), developed in this laboratory.

Solubility of SR 4317 = assay type: physicochemical
[3] = system: hypoxic (radioresistant) cells in HT29 tumours; test: HT29 tumour xenograft excision assay: clonogenic survivors 18 hr after radiation and drug; assay type: in vivo, mice
Procedure: Animals with subcutaneous tumours (ca 300 mg) received whole body radiation (RAD; 20 Gy) to sterilise oxygenated tumour cells. Activity of drugs against the hypoxic survivors was determined by intraperitoneal administration of solutions in 5% DMSO/saline 5 min after radiation, using TPZ alone (133 μmol/kg) or in combination with SR 4317 (1000 μmol/kg). Tumours were excised 18 hr after treatment, dissociated enzymatically, and plated to determine the number of clonogenic survivors. Values are geometric means and error bars are standard errors of the mean. Horizontal lines show historical values for untreated controls and radiation only (solid lines are means, dashed lines are 95% confidence limits. p values were determined by one-way ANOVA using only data within this experiment.
The utility of SR 4317 as a potentiator of the hypoxic cytotoxicity of TPZ was assessed in an in vivo model (HT29 tumour xenografts) as illustrated in FIG. 7. In this experiment tumour response was determined by excising tumours 18 hr after treatment and quantifying the number of clonogenic survivors by plating in vitro. TPZ was administered at a sub-efficacious dose (0.133 mmol/kg), 5 minutes after whole body radiation (20 Gy). […] No significant cytotoxicity was observed when the two compounds were administered in the absence of irradiation, indicating lack of activity against aerobic cells in tumours (FIG. 7).

[4] = Plasma pharmacokinetics after intraperitoneal administration; assay type: in vivo, CD-1 mice
Procedure: The plasma pharrmacokinetics of SR 4317 and TPZ were determined in C3H mice, alone and in combination (FIG. 6), to assess whether therapeutic concentrations of SR 4317 can be achieved in mice.

HT29 cells [5] = test: Radiosensitisation of anoxic HT29 cells; assay type: cell-based, human; conditions: 0.6 mM of each agent; anoxic HT29 cells irradiated 5 min after drug addition
Procedure: Anoxic cell suspensions were irradiated 5 min after addition of pre-equilibrated anoxic drug solutions. Data are shown for duplicate determinations, and are fitted using a linear-quadratic model

[6] = Approximate solubility limit in Alpha MEM culture medium containing 5% fetal calf serum; assay type: physicochemical; conditions: plasma or biological fluid, kinetic from dmso stock, dilution from DMSO stock solutions
[7] = system: HT29 colon carcinoma cells; test: IC50 assay of potentiator alone, HT29 cells, 4 hr anoxic exposure, sulphorhodamine B staining; assay type: cell-based, human; conditions: Homo sapiens, HT-29, 4 hr exposure under anoxic conditions, cell density by sulphorhodamine B five days after washing out

With Nc1nc2ccccc2[n+]([O-])n1 [Compound 3, 1,2,4-Benzotriazin-3-amine 1-oxide] the “TPR (TPZ potentiation ratio) = TPZ IC50 without potentiator/TPZ IC50 with potentiator” value (HT29 cells [1]) was 2.0, the “Potentiation of the cytotoxicity of TPZ to hypoxic tumour cells” value ([2]; HT29 cells in culture, anoxic (<10 ppm O2), TPZ 30 μM, simultaneous exposure) was “increased quite markedly” and the “Potentiation of the aerobic cytotoxicity of TPZ” value ([2]; listed as SR 4317) was “does not potentiate”. The “Potentiation of the aerobic cytotoxicity of TPZ” value ([2]; listed as SR4317) was “lack of potentiation”, the “Potentiation of TPZ cytotoxicity” value ([2]; SR 4317 at 100 μM for 1 hr, TPZ 30 μM, anoxic HT29 cells) was “significant potentiation” and the “Relative dose potency for potentiation of the hypoxic cytotoxicity of TPZ” value ([2]; TPZ 30 μM, anoxic HT29 cells 5×10^5/ml, drug exposure 1 hr) was “SR 4317>metronidazole=misonidazole”. The “Toxicity of SR4317 alone” value ([2]; anoxic HT29 suspension, 5×10^5 cells/ml, up to its solubility limit (ca 1 mM)) was “non-toxic”, the “Transport through hypoxic MCLs” value (HT-29 MCLs) was “faster than for TPZ” and the solubility (Solubility of SR 4317; aqueous solution, read-out: Aqueous solubility) was ~800 µM (≈ 130 µg/mL). The solubility (Solubility of SR 4317; as stated for the HT29 cell suspension experiment (FIG. 1), read-out: Solubility limit) was ~1000 µM (≈ 162 µg/mL), the “Activity of radiation + TPZ + SR 4317 compared with radiation alone” value ([3]; SR 4317 1 mmol/kg added to TPZ 0.133 mmol/kg after 20 Gy, p<0.01 by one way ANOVA) was “greater than radiation alone” and the “Difference between radiation+TPZ and radiation+TPZ+SR 4317” value ([3]; SR 4317 1 mmol/kg, TPZ 0.133 mmol/kg, 20 Gy, p <0.05) was “significant”. The “Maximum SR 4317 concentration in plasma” value ([4]; after intraperitoneal co-administration of TPZ + SR 4317 (750 μmol/kg), mice) was ~200 µM, the “Plasma concentrations in mice” value ([4]; general statement) was “relatively low” and the Clearance from plasma ([4]; over the first two hours after co-administration of TPZ and SR 4317, mice) was “slow clearance”. For the same molecule, the “Relative potency for radiosensitization of hypoxic HT29 cells” value (HT29 cells [5]) was “misonidazole>metronidazole=SR4317”, the solubility [6] was 800 µM (≈ 130 µg/mL) and the IC50 [7] was > 500 µM.
